Holding throughout (assay type): functional, cell-based
Test [1] in a line: Antiproliferative activity against human SMMC7721 cells assessed as inhibition of cell proliferation by CCK8 assay. The following applies: SMMC-7721. A general note: Formazan colour is commonly taken as a measure of viable cells.
Another test has as its system MCF7. Briefly: Antiproliferative activity against human MCF7 cells assessed as inhibition of cell proliferation by CCK8 assay.
In a further test the test system is A549. Briefly: Antiproliferative activity against human A549 cells assessed as inhibition of cell proliferation by CCK8 assay.

For the molecule `Oc1ccccc1/C=N/c1nnc(SCc2nnc(-c3ccccc3)o2)s1`, the results for the IC50 (in test [1]; in the test on MCF7; in the test on A549) were 7.1 µM, 9.76 µM and 4.11 µM, respectively.
In the case of `Oc1ccccc1/C=N/c1nnc(SCc2nnc(-c3ccc(F)cc3)o2)s1`, the IC50 stood at 13.1 µM in test [1], 15.6 µM in the test on MCF7 and 20.1 µM in the test on A549.
As to `Oc1ccccc1/C=N/c1nnc(SCc2nnc(-c3ccccc3Cl)o2)s1`, the figures for the IC50 (in test [1]; in the test with MCF7; in the test on A549) were 31.8 µM, 18.1 µM and 18.1 µM, respectively.
Turning to `Oc1ccccc1/C=N/c1nnc(SCc2nnc(-c3ccc(Cl)cc3)o2)s1`, the IC50 in test [1] came to 2.84 µM; with MCF7 it was 7.55 µM; in the test on A549 it was 30.1 µM.
The corresponding values for `Oc1ccccc1/C=N/c1nnc(SCc2nnc(-c3ccccc3Br)o2)s1` are 6.78 µM, 9.14 µM and 7.15 µM.
In the case of `Oc1ccccc1/C=N/c1nnc(SCc2nnc(-c3ccc(Br)cc3)o2)s1`, the values for the IC50 (in test [1]; with MCF7; in the test with A549) were 18 µM, 8.32 µM and 20 µM, respectively.
Take `Cc1ccccc1-c1nnc(CSc2nnc(/N=C/c3ccccc3O)s2)o1`: the IC50 came out at 15.5 µM in test [1], 9.36 µM with MCF7 and 7.85 µM with A549.
In the case of `Cc1cccc(-c2nnc(CSc3nnc(/N=C/c4ccccc4O)s3)o2)c1`, the figures for the IC50 (in test [1]; in the test with MCF7; with A549) were 4.55 µM, 11.6 µM and 24.3 µM, respectively.
On the same counts, the results for `Cc1ccc(-c2nnc(CSc3nnc(/N=C/c4ccccc4O)s3)o2)cc1` are 37.1 µM, 8.75 µM and 22 µM.
On the same counts, the results for `COc1cccc(-c2nnc(CSc3nnc(/N=C/c4ccccc4O)s3)o2)c1` are 4.34 µM, 22 µM and 8.82 µM.
Turning to `COc1ccc(-c2nnc(CSc3nnc(/N=C/c4ccccc4O)s3)o2)cc1`, the IC50 was determined as 10 µM in test [1], 4.56 µM with MCF7 and 20.3 µM in the test on A549.
On the same counts, the results for `COc1cc(-c2nnc(CSc3nnc(/N=C/c4ccccc4O)s3)o2)cc(OC)c1OC` are 7.6 µM, 7.95 µM and 6.55 µM.
For the molecule `O=[N+]([O-])c1cccc(-c2nnc(CSc3nnc(/N=C/c4ccccc4O)s3)o2)c1`, the values for the IC50 (in test [1]; in the test with MCF7; with A549) were 15.7 µM, 13.9 µM and 36.9 µM, respectively.
As to `O=[N+]([O-])c1ccc(-c2nnc(CSc3nnc(/N=C/c4ccccc4O)s3)o2)cc1`, the values for the IC50 (in test [1]; with MCF7; in the test with A549) were 16.9 µM, 4.25 µM and 4.13 µM, respectively.
In the case of `O=c1[nH]cc(F)c(=O)[nH]1` [FLUOROURACIL], the IC50 in test [1] is 5.62 µM; in the test with A549, 8.13 µM.

The IC50 is the concentration needed to halve the response being measured.

(Values after ChEMBL document CHEMBL3352576, “Synthesis and antitumor activities of novel hybrid molecules containing 1,3,4-oxadiazole and 1,3,4-thiadiazole bearing Schiff base moiety” (Bioorg Med Chem Lett, 2014).)
